# According to the NIST ThermoML archive (doi:10.1021/je900738e):
# ± gives the expanded uncertainty stated by the source.
# Details: Liquid, Manometric method
vapor or sublimation pressure (283.15 K) [kPa],vapor or sublimation pressure (293.15 K) [kPa],vapor or sublimation pressure (303.15 K) [kPa],vapor or sublimation pressure (313.15 K) [kPa],vapor or sublimation pressure (323.15 K) [kPa],vapor or sublimation pressure (333.15 K) [kPa],vapor or sublimation pressure (343.15 K) [kPa],vapor or sublimation pressure (346.65 K) [kPa],vapor or sublimation pressure (287.15 K) [kPa],vapor or sublimation pressure (296.35 K) [kPa],vapor or sublimation pressure (305.35 K) [kPa],vapor or sublimation pressure (313.45 K) [kPa],vapor or sublimation pressure (323.05 K) [kPa],vapor or sublimation pressure (332.95 K) [kPa],vapor or sublimation pressure (343.05 K) [kPa],vapor or sublimation pressure (352.85 K) [kPa],vapor or sublimation pressure (363.05 K) [kPa],vapor or sublimation pressure (372.85 K) [kPa],SMILES
3.96 ± 0.22,7.25 ± 0.22,12.82 ± 0.23,21.83 ± 0.26,36.1 ± 0.3,57.08 ± 0.38,87.31 ± 0.46,100.8 ± 0.52,,,,,,,,,,,"OCC(F)(F)F [2,2,2-trifluoroethanol]"
,,,,,,,,1.64 ± 0.21,2.81 ± 0.22,4.74 ± 0.22,7.51 ± 0.23,12.26 ± 0.26,19.69 ± 0.32,30.94 ± 0.42,46.73 ± 0.57,69.75 ± 0.8,100.32 ± 1.1,O [water]
